These results are taken from PubChem BioAssay AID220 (DTP/NCI, 2004).

“And” between values parts separate entries of the source, which are not always exact repeats. Equal entries are not always repeated. Results filed as inconclusive are left out. Residues, ends and D or L forms follow the SMILES beside them. *: point of attachment. Trt = c1ccc(C(c2ccccc2)(c2ccccc2)*)cc1; Cbz = O=C(OCc1ccccc1)*; Bn = c1ccc(C*)cc1; βAla = NCCC(=O)O

The assay concerns CD8F1 mice, subcutaneous mammary adenocarcinoma, T/C%. Description: NCI In Vivo Anticancer Drug Screen. Data for tumor model Mammary Adenocarcinoma CD8F1 (subcutaneous) in CD8F1. As to conditions: higher = larger tumour. A digest of the protocol:
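Antitumor activity is assessed in transplantable-tumor mice by comparing the treated group with a vehicle-treated control group. Survival or tumor size serves as the measure, reported as T divided by C.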

Where [1] appears, read: endpoint: median tumor weight (est.), dose: 12.5 mg/kg/injection, schedule: Q07DX005 (ip), vehicle: saline.
[2] abbreviates: endpoint: median tumor weight (est.), dose: 25.0 mg/kg/injection, schedule: Q07DX005 (ip), vehicle: Klucel (hydroxypropylcellulose) (HPC).
Setting [3] is: endpoint: median tumor weight (est.), dose: 100.0 mg/kg/injection, schedule: Q07DX005 (ip), vehicle: Klucel (hydroxypropylcellulose) (HPC).
The mark [4] stands for this setting: endpoint: median tumor weight (est.), dose: 25.0 mg/kg/injection, schedule: Q07DX005 (ip), vehicle: saline with Tween-80.
Setting [5] is: endpoint: median tumor weight (est.), dose: 50.0 mg/kg/injection, schedule: Q07DX005 (ip), vehicle: saline with Tween-80.
[6] abbreviates: endpoint: median tumor weight (est.), dose: 100.0 mg/kg/injection, schedule: Q07DX005 (ip), vehicle: saline with Tween-80.
Where [7] appears, read: endpoint: median tumor weight (est.), dose: 200.0 mg/kg/injection, schedule: Q07DX005 (ip), vehicle: saline with Tween-80.
Where [8] appears, read: endpoint: median tumor weight (est.), dose: 400.0 mg/kg/injection, schedule: Q07DX005 (ip), vehicle: saline with Tween-80.
Where [9] appears, read: endpoint: median tumor weight (est.), dose: 800.0 mg/kg/injection, schedule: Q07DX005 (ip), vehicle: saline with Tween-80.
Where [10] appears, read: endpoint: median tumor weight change, dose: 125.0 mg/kg/injection, schedule: Q01DX001 (ip), vehicle: saline with Tween-80.
The mark [11] stands for this setting: endpoint: median tumor weight change, dose: 250.0 mg/kg/injection, schedule: Q01DX001 (ip), vehicle: saline with Tween-80.
Where [12] appears, read: endpoint: median tumor weight change, dose: 500.0 mg/kg/injection, schedule: Q01DX001 (ip), vehicle: saline with Tween-80.
[13] abbreviates: endpoint: median tumor weight (est.), dose: 12.5 mg/kg/injection, schedule: Q07DX005 (ip), vehicle: saline with Tween-80.

For the compound `COC1C(/C=C/C(C)=O)OC2OC(C)(C)OC21` (configuration not stated), the T/C was 165 % of control (endpoint: median tumor weight (est.), dose: 12.5 mg/kg/injection, schedule: Q07DX005 (ip), vehicle: Klucel (hydroxypropylcellulose) (HPC)); 76 % of control under setting [1]; 99 % of control under setting [2]; 83 % of control (endpoint: median tumor weight (est.), dose: 25.0 mg/kg/injection, schedule: Q07DX005 (ip), vehicle: saline); 91 % of control (endpoint: median tumor weight (est.), dose: 50.0 mg/kg/injection, schedule: Q07DX005 (ip), vehicle: Klucel (hydroxypropylcellulose) (HPC)); 38 % of control (endpoint: median tumor weight (est.), dose: 50.0 mg/kg/injection, schedule: Q07DX005 (ip), vehicle: saline). Besides, the T/C by setting is: under setting [3], 96 % of control; (endpoint: median tumor weight (est.), dose: 100.0 mg/kg/injection, schedule: Q07DX005 (ip), vehicle: saline) 101 % of control; (endpoint: median tumor weight (est.), dose: 200.0 mg/kg/injection, schedule: Q07DX005 (ip), vehicle: Klucel (hydroxypropylcellulose) (HPC)) 71 % of control; (endpoint: median tumor weight (est.), dose: 200.0 mg/kg/injection, schedule: Q07DX005 (ip), vehicle: saline) 101 % of control; (endpoint: median tumor weight (est.), dose: 400.0 mg/kg/injection, schedule: Q07DX005 (ip), vehicle: saline) 84 % of control.
As for `CC1(O)CC23CC(O)C4(O)C(CC(O)C4(C)C)C(C)(O)C2CCC1C3O` (configuration not stated), the T/C by setting is: (endpoint: median tumor weight change, dose: 0.25 mg/kg/injection, schedule: Q01DX001 (ip), vehicle: Klucel (hydroxypropylcellulose) (HPC)) 39 % of control; (endpoint: median tumor weight change, dose: 0.5 mg/kg/injection, schedule: Q01DX001 (ip), vehicle: Klucel (hydroxypropylcellulose) (HPC)) 73 % of control.
Turning to `CC(=O)Nc1ccc(O)c(O)c1`, the T/C under setting [4] was 107 % of control; the T/C under setting [5] was 81 % of control; the T/C under setting [6] was 79 % of control; the T/C under setting [7] is 76 % of control; the T/C under setting [8] was 114 % of control; the T/C under setting [9] was 159 % of control.
For the compound `C1CN1c1nc(N2CC2)nc(N2CC2)n1`, the T/C is 64 % of control and 86 % of control (endpoint: median tumor weight (est.), dose: 0.12 mg/kg/injection, schedule: Q07DX005 (ip), vehicle: saline); 23 % of control and 28 % of control (endpoint: median tumor weight (est.), dose: 0.25 mg/kg/injection, schedule: Q07DX005 (ip), vehicle: saline); 6 % of control and 10 % of control (endpoint: median tumor weight (est.), dose: 0.5 mg/kg/injection, schedule: Q07DX005 (ip), vehicle: saline); 1 % of control (endpoint: median tumor weight (est.), dose: 1.0 mg/kg/injection, schedule: Q07DX005 (ip), vehicle: saline); 18 % of control (endpoint: median tumor weight change, dose: 0.62 mg/kg/injection, schedule: Q01DX001 (ip), vehicle: suspension in saline); -17 % of control and -41 % of control (endpoint: median tumor weight change, dose: 2.5 mg/kg/injection, schedule: Q01DX001 (ip), vehicle: suspension in saline).
As for `O=C1NCCN1c1ncc([N+](=O)[O-])s1`, the T/C was 121 % of control (endpoint: mean tumor weight, dose: 100.0 mg/kg/injection, schedule: Q07DX005 (ip), vehicle: saline); 89 % of control (endpoint: mean tumor weight, dose: 200.0 mg/kg/injection, schedule: Q07DX005 (ip), vehicle: saline); 101 % of control (endpoint: mean tumor weight, dose: 400.0 mg/kg/injection, schedule: Q07DX005 (ip), vehicle: saline).
With `C/C=C(\Cl)C1=CC(=O)C23CC2C2(C)COC1(O)C3(O)O2` (configuration not stated), the T/C (endpoint: median tumor weight (est.), dose: 6.0 mg/kg/injection, schedule: Q07DX005 (ip), vehicle: saline with Tween-80) was 90 % of control.
As for `Cc1ccc(N)c(N)c1`, the T/C was 65 % of control under setting [10], 48 % of control under setting [11] and 75 % of control under setting [12].
For the compound `CN(C)N=Nc1ccccc1`, the T/C is 87 % of control under setting [2] and 78 % of control under setting [3].
As for `Cc1c2c(ccc3ccccc32)c[n+]2ccccc12`, the T/C by setting is: (endpoint: median tumor weight (est.), dose: 6.25 mg/kg/injection, schedule: Q07DX005 (ip), vehicle: saline) 73 % of control; under setting [1], 71 % of control.
As to `Cc1c2cc(Cl)c3ccccc3c2c[n+]2ccccc12`, the T/C under setting [13] is 52 % of control; the T/C under setting [4] was 52 % of control and 57 % of control; the T/C under setting [5] is 61 % of control and 65 % of control.
With `O=c1c(O)c(-c2cc(O)c(O)c(O)c2)oc2cc(O)cc(O)c12`, the T/C is 85 % of control (endpoint: median tumor weight (est.), dose: 12.5 mg/kg/injection, schedule: Q07DX005 (ip), vehicle: other); 85 % of control (endpoint: median tumor weight (est.), dose: 25.0 mg/kg/injection, schedule: Q07DX005 (ip), vehicle: other); 122 % of control (endpoint: median tumor weight (est.), dose: 50.0 mg/kg/injection, schedule: Q07DX005 (ip), vehicle: other); 70 % of control (endpoint: median tumor weight (est.), dose: 100.0 mg/kg/injection, schedule: Q07DX005 (ip), vehicle: other); 89 % of control (endpoint: median tumor weight (est.), dose: 200.0 mg/kg/injection, schedule: Q07DX005 (ip), vehicle: other); 70 % of control (endpoint: median tumor weight (est.), dose: 400.0 mg/kg/injection, schedule: Q07DX005 (ip), vehicle: other). Besides, the T/C runs as follows: under setting [10], 61 % of control; under setting [11], 46 % of control; under setting [12], 40 % of control.
With `CC(=O)Oc1ccc[nH]c1=O`, the T/C is, setting by setting: under setting [4], 68 % of control; under setting [5], 88 % of control; under setting [6], 93 % of control; under setting [7], 102 % of control; under setting [8], 118 % of control; under setting [9], 54 % of control.
As to `COc1ccc2nc3cc(Cl)ccc3c(NCCNCCNCCNc3c4ccc(Cl)cc4nc4ccc(OC)cc34)c2c1`, the T/C under setting [13] is 86 % of control and 108 % of control; the T/C under setting [4] was 68 % of control; the T/C under setting [5] was 88 % of control.
Turning to `O=C(NO)c1ccc(O)c(O)c1`, the T/C reads like this: (endpoint: median tumor weight change, dose: 300.0 mg/kg/injection, schedule: Q01DX001 (ip), vehicle: water) 89 % of control; (endpoint: median tumor weight change, dose: 600.0 mg/kg/injection, schedule: Q01DX001 (ip), vehicle: water) 48 % of control.
For the compound `COC(=O)C(CSC(c1ccccc1)(c1ccccc1)c1ccccc1)NC(=O)C(CSCc1ccccc1)NC(=O)CCNC(=O)OCc1ccccc1` (configuration not stated) ({Cbz-βAla}-Cys(Bn)-Cys(Trt)-OMe; configuration not given here), the T/C was 107 % of control (endpoint: median tumor weight change, dose: 250.0 mg/kg/injection, schedule: Q01DX001 (ip), vehicle: Klucel (hydroxypropylcellulose) (HPC)); 95 % of control (endpoint: median tumor weight change, dose: 500.0 mg/kg/injection, schedule: Q01DX001 (ip), vehicle: Klucel (hydroxypropylcellulose) (HPC)); 90 % of control (endpoint: median tumor weight change, dose: 1000.0 mg/kg/injection, schedule: Q01DX001 (ip), vehicle: Klucel (hydroxypropylcellulose) (HPC)); 84 % of control (endpoint: median tumor weight change, dose: 2000.0 mg/kg/injection, schedule: Q01DX001 (ip), vehicle: Klucel (hydroxypropylcellulose) (HPC)).
As to `c1ccc([P+](c2ccccc2)(c2ccccc2)c2ccccc2)cc1`, the T/C by setting is: (endpoint: median tumor weight (est.), dose: 0.31 mg/kg/injection, schedule: Q07DX004 (ip), vehicle: saline) 218 % of control and 86 % of control; (endpoint: median tumor weight (est.), dose: 0.31 mg/kg/injection, schedule: Q07DX005 (ip), vehicle: saline) 98 % of control; (endpoint: median tumor weight (est.), dose: 0.62 mg/kg/injection, schedule: Q04DX005 (ip), vehicle: saline) 50 % of control and 67 % of control; (endpoint: median tumor weight (est.), dose: 0.62 mg/kg/injection, schedule: Q07DX005 (ip), vehicle: saline) 121 % of control; (endpoint: median tumor weight (est.), dose: 1.25 mg/kg/injection, schedule: Q04DX005 (ip), vehicle: saline) 100 % of control; (endpoint: median tumor weight (est.), dose: 1.25 mg/kg/injection, schedule: Q07DX004 (ip), vehicle: saline) 124 % of control. Further, the T/C is 62 % of control (endpoint: median tumor weight (est.), dose: 1.25 mg/kg/injection, schedule: Q07DX005 (ip), vehicle: saline); 73 % of control and 76 % of control (endpoint: median tumor weight (est.), dose: 2.5 mg/kg/injection, schedule: Q04DX005 (ip), vehicle: saline); 63 % of control (endpoint: median tumor weight (est.), dose: 2.5 mg/kg/injection, schedule: Q07DX005 (ip), vehicle: saline).
Turning to `COc1cccc2c1C(=O)c1c(O)c3c(c(O)c1C2=O)CC(O)(/C(C)=N/NC(=O)CCCCC(=O)N/N=C(\C)C1(O)Cc2c(O)c4c(c(O)c2C(OC2CC(N)C(O)C(C)O2)C1)C(=O)c1c(OC)cccc1C4=O)CC3OC1CC(N)C(O)C(C)O1` (configuration not stated), the T/C reads like this: (endpoint: median tumor weight change, dose: 16.0 mg/kg/injection, schedule: Q01DX001 (ip), vehicle: water) 113 % of control; (endpoint: median tumor weight change, dose: 31.0 mg/kg/injection, schedule: Q01DX001 (ip), vehicle: water) 36 % of control.
Regarding `CC(Oc1ccccc1-c1ccccc1)C(=O)N(C)C` (configuration not stated), the T/C reads like this: under setting [10], 70 % of control; under setting [11], 89 % of control; under setting [12], 95 % of control.
